# Assay results from US12077503B2, “Substituted cyclic amides and their use as herbicides” (FMC CORPORATION, priority 2015, dated 2024).
# Read-outs that look alike come from different tables or passages of the source.
# Legend:
# Assay type in all cases: in vivo
# [1] = tested on: Kochia (Kochia scoparia); assay: Test A preemergence; details: Bassia scoparia, pre-emergence, 240 h; for pest or weed control at 125 g/ha: 125 g ai/ha, preemergence, 0 to 100 scale where 0 is no effect and 100 is complete control, read-out: Kochia plant response rating; for pest or weed control at 500 g/ha: 500 g ai/ha, Preemergence, visual injury vs untreated controls after approximately 10 d, read-out: Kochia plant response rating (0 to 100 scale where 0 is no effect and 100 is complete control)
# In short: (§1)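 Greenhouse, ~10 d after spray; visual injury vs untreated controls, 0 = no effect, 100 = complete control. Preemergence: directed soil spray over planted seeds. Postemergence: plants 2–10 cm, 1–2 leaf stage. Loam/sand blend. Compound in non-phytotoxic solvent with surfactant.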
# [2] = tested on: barnyardgrass (Echinochloa crus-galli); assay: Test A preemergence; details: Echinochloa crus-galli, pre-emergence, 240 h; for pest or weed control at 125 g/ha: 125 g ai/ha, preemergence, 0 to 100 scale where 0 is no effect and 100 is complete control, read-out: Barnyardgrass plant response rating; for pest or weed control at 500 g/ha: 500 g ai/ha, Preemergence, visual injury vs untreated controls after approximately 10 d, read-out: Barnyardgrass plant response rating (0 to 100 scale where 0 is no effect and 100 is complete control)
# In short: as §1
# [3] = tested on: giant foxtail (Setaria faberii); assay: Test A preemergence; details: Setaria faberi, pre-emergence, 240 h; for pest or weed control at 125 g/ha: 125 g ai/ha, preemergence, 0 to 100 scale where 0 is no effect and 100 is complete control, read-out: Foxtail, Giant plant response rating; for pest or weed control at 500 g/ha: 500 g ai/ha, Preemergence, visual injury vs untreated controls after approximately 10 d, read-out: Foxtail, Giant plant response rating (0 to 100 scale where 0 is no effect and 100 is complete control)
# In short: as §1
# [4] = tested on: pigweed (Amaranthus retroflexus); assay: Test A preemergence; details: Amaranthus retroflexus, pre-emergence, 240 h; for pest or weed control at 125 g/ha: 125 g ai/ha, preemergence, 0 to 100 scale where 0 is no effect and 100 is complete control, read-out: Pigweed plant response rating; for pest or weed control at 500 g/ha: 500 g ai/ha, Preemergence, visual injury vs untreated controls after approximately 10 d, read-out: Pigweed plant response rating (0 to 100 scale where 0 is no effect and 100 is complete control)
# [5] = tested on: ragweed (common ragweed, Ambrosia elatior); assay: Test A preemergence; details: Ambrosia artemisiifolia, pre-emergence, 240 h; for pest or weed control at 125 g/ha: 125 g ai/ha, preemergence, 0 to 100 scale where 0 is no effect and 100 is complete control, read-out: Ragweed plant response rating; for pest or weed control at 500 g/ha: 500 g ai/ha, Preemergence, visual injury vs untreated controls after approximately 10 d, read-out: Ragweed plant response rating (0 to 100 scale where 0 is no effect and 100 is complete control)
# In short: as §1
# [6] = tested on: ryegrass, Italian (Italian ryegrass, Lolium multiflorum); assay: Test A preemergence; details: Lolium multiflorum, pre-emergence, 240 h; for pest or weed control at 125 g/ha: 125 g ai/ha, preemergence, 0 to 100 scale where 0 is no effect and 100 is complete control, read-out: Ryegrass, Italian plant response rating; for pest or weed control at 500 g/ha: 500 g ai/ha, Preemergence, visual injury vs untreated controls after approximately 10 d, read-out: Ryegrass, Italian plant response rating (0 to 100 scale where 0 is no effect and 100 is complete control)
# In short: as §1
# [7] = tested on: Kochia (Kochia scoparia); assay: Test A postemergence; details: Bassia scoparia, post-emergence, 240 h, 125 g ai/ha
# In short: as §1
# [8] = tested on: barnyardgrass (Echinochloa crus-galli); assay: Test A postemergence; details: Echinochloa crus-galli, post-emergence, 240 h, 125 g ai/ha
# In short: as §1
# [9] = tested on: blackgrass (Alopecurus myosuroides); assay: Test A postemergence; details: Alopecurus myosuroides, post-emergence, 240 h, 125 g ai/ha
# In short: as §1
# [10] = tested on: pigweed (Amaranthus retroflexus); assay: Test A postemergence; details: Amaranthus retroflexus, post-emergence, 240 h, 125 g ai/ha
# In short: as §1
# [11] = tested on: barnyardgrass (Echinochloa crus-galli); assay: Test B flooded paddy test; details: Echinochloa crus-galli, Flood, 250 g ai/ha; scale of 0 to 100 where 0 is no effect and 100 is complete control; read-out: Barnyardgrass plant response rating
# In short: (§2)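 Plants at 2-leaf stage flooded to 3 cm above soil, with compounds applied directly to paddy water and that depth maintained. Plants kept in greenhouse 13–15 d. Visual rating versus controls on a 0 (no effect) to 100 (complete control) scale.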
# [12] = tested on: ducksalad (Heteranthera limosa); assay: Test B flooded paddy test; details: Heteranthera limosa, Flood, 250 g ai/ha; scale of 0 to 100 where 0 is no effect and 100 is complete control; read-out: Ducksalad plant response rating
# In short: as §2
# [13] = tested on: rice (Oryra sativa); assay: Test B flooded paddy test; details: Oryza sativa, Flood, 250 g ai/ha; scale of 0 to 100 where 0 is no effect and 100 is complete control; read-out: Rice plant response rating
# In short: as §2
# [14] = tested on: sedge, umbrella (small-flower umbrella sedge, Cyperus difformis); assay: Test B flooded paddy test; details: Cyperus difformis, Flood, 250 g ai/ha; scale of 0 to 100 where 0 is no effect and 100 is complete control; read-out: Sedge, Umbrella plant response rating
# In short: as §2
# [15] = postemergence, visual injury rating after approximately 10 d, read-out: Kochia plant response rating (0 to 100 scale, 0 no effect, 100 complete control)
# [16] = postemergence, visual injury rating after approximately 10 d, read-out: Barnyardgrass plant response rating (0 to 100 scale, 0 no effect, 100 complete control)
# [17] = postemergence, visual injury rating after approximately 10 d, read-out: Blackgrass plant response rating (0 to 100 scale, 0 no effect, 100 complete control)
# [18] = postemergence, visual injury rating after approximately 10 d, read-out: Pigweed plant response rating (0 to 100 scale, 0 no effect, 100 complete control)
Structure (SMILES),pest or weed control at 125 g/ha [1] [%],pest or weed control at 500 g/ha [1] [%],pest or weed control at 125 g/ha [2] [%],pest or weed control at 500 g/ha [2] [%],pest or weed control at 125 g/ha [3] [%],pest or weed control at 500 g/ha [3] [%],pest or weed control at 125 g/ha [4] [%],pest or weed control at 500 g/ha [4] [%],pest or weed control at 125 g/ha [5] [%],pest or weed control at 500 g/ha [5] [%],pest or weed control at 125 g/ha [6] [%],pest or weed control at 500 g/ha [6] [%],"pest or weed control at 125 g/ha [7, 15] [%]","pest or weed control at 125 g/ha [8, 16] [%]","pest or weed control at 125 g/ha [9, 17] [%]","pest or weed control at 125 g/ha [10, 18] [%]",pest or weed control at 250 g/ha [11] [%],pest or weed control at 250 g/ha [12] [%],pest or weed control at 250 g/ha [13] [%],pest or weed control at 250 g/ha [14] [%],further results
CCOc1ccc([C@H]2CN(C)C(=O)[C@@H]2C(=O)Nc2ccc(F)cc2F)cc1 [Compound 905],10,90,70,90,90,90,0,0,0,0,0,0,0,70,0,0,0,0,0,0,
CCOc1ccc([C@H]2CNC(=O)[C@@H]2C(=O)Nc2ccc(F)cc2F)cc1 [Compound 908],0,0,0,50,30,80,0,0,0,0,0,0,0,20,0,0,0,0,0,0,
CN1C[C@H](c2ccc(C(F)(F)F)cc2)[C@@H](C(=O)Nc2ccccc2[S+](C)[O-])C1=O (stereo partly drawn) [Compound 915],80,90,100,100,90,100,80,90,80,90,40,70,,,,,40,100,20,0,"pest or weed control at 125 g/ha ([7]; Postemergence, visual injury after approximately 10 d, 0 to 100 scale where 0 is no effect and 100 is complete control, read-out: Plant response rating, Kochia): 20%; pest or weed control at 125 g/ha ([8]; Postemergence, visual injury after approximately 10 d, 0 to 100 scale where 0 is no effect and 100 is complete control, read-out: Plant response rating, Barnyardgrass): 90%; pest or weed control at 125 g/ha ([9]; Postemergence, visual injury after approximately 10 d, 0 to 100 scale where 0 is no effect and 100 is complete control, read-out: Plant response rating, Blackgrass): 40%; pest or weed control at 125 g/ha ([10]; Postemergence, visual injury after approximately 10 d, 0 to 100 scale where 0 is no effect and 100 is complete control, read-out: Plant response rating, Pigweed): 60%"
